Results reported in PMC8786932, “Bicyclic azetidines target acute and chronic stages of Toxoplasma gondii by inhibiting parasite phenylalanyl t-RNA synthetase” (Nature Communications, 2022).
“And” between values parts separate entries of the source, which are not always exact repeats. Identical values can stand only once. Like-named read-outs stand apart in the source and are kept apart here.

Key:
[1] = test system: T. gondii RHΔΔ TgPheRS[V262A]; test: Tachyzoite lytic assay, V262A mutant; type: cell-based; conditions: Toxoplasma gondii
Experimental: In vitro cultures of HFF cells containing mature vacuoles were scraped, passaged through 23 g blunt end needles, and filtered using 3 micron filters. Purified parasites were resuspended in 350 μL of cytomix plus[49] and combined in a BTX 4 mm gap cuvette with 30 μL of PCR amplified templates corresponding to mutations of interest and 10 μg of pSAG1:Cas9-GFP U6:sgTgPheRS^[mut] (in 20 μL, 400 μL total volume, see Supplementary Data 1 for sgRNA sequences) prior to electroporation using a BTX ETM 830 electroporator. Amplified templates for TgPheRS mutations were generated from gBlocks (Integrated DNA Technologies, Coralville, IA, USA) that contain a BclI restriction site that replaces the PAM sequence to protect the repair template from being cut by Cas9. […]
Parasite growth on HFF monolayers was monitored using a 96-well plate-based lytic assay modified from a previously described protocol. […] Plates were rinsed with water, air dried, and absorption quantified on the Cytation 3 multi-mode imager at 570 nm wavelength. % parasite growth was calculated as 100−[(OD value for infected cultures at each concentration of compound/average OD value for no compound and no parasite infection) × 100]. EC50 values were calculated based on the mean of three biological replicates with each replicate containing two technical replicates.

[2] = mouse; cited from earlier work
[3] = test system: T. gondii RHΔhxgprtΔku80 (RHΔΔ); test: Tachyzoite lytic assay, wild-type parent; type: cell-based, Toxoplasma gondii; conditions: for % Parasite Growth: RHΔΔ; for EC50: Toxoplasma gondii
Experimental: Parasite growth on HFF monolayers was monitored using a 96-well plate-based lytic assay modified from a previously described protocol. […]. Freshly harvested parasites (7.5 × 10^4 /well) were added to each well (in 100uL volume) to reach the final concentration range (10 μM to 0.0005 μM, 200 μL/well, 0.1% DMSO). Plates were incubated for 72 h at 37 °C then culture medium was aspirated and monolayers were fixed with 100% ethanol (ETOH) for 5 min at room temperature (RT). After rinsing with water, wells were stained with 0.1% crystal violet solution for 10 min at RT. Plates were rinsed with water, air dried, and absorption quantified on the Cytation 3 multi-mode imager at 570 nm wavelength. % parasite growth was calculated as 100−[(OD value for infected cultures at each concentration of compound/average OD value for no compound and no parasite infection) × 100]. EC50 values were calculated based on the mean of three biological replicates with each replicate containing two technical replicates.

[4] = test system: HFF (primary human foreskin fibroblast); test: in vitro; type: cell-based; conditions: EC50 host cell/EC50 T. gondii
Experimental: For the toxicity screen, compounds were tested in 96-well plates using all the wells as no edge affect was observed. Compounds were diluted to 40 μM (2x concentration in 10% DMEM, 0.4% DMSO) before step-wise, 3-fold dilution in 10% DMEM to create 10-dose series (20 μM to 0.001 μM). Host cells were plated in black, μ-Clear 96-well plates (Greiner Bio-One). We compared several lineages including HepG2 (human hepatocellular carcinoma (ATCC-HB-8065)), THP-1 (human monocytic tumor line), SH-SY5Y (human neuroblastoma (ATCC CRL-2266)), A549 (human lung carcinoma (ATCC CRM-CCL-185)) and Caco-2 (human intestinal adenocarcinoma (ATCC HTB-37)) and HFF (primary human foreskin fibroblast) obtained from the laboratory of John Boothroyd at Stanford University. Cells were maintained in culture media according to the formulations recommended by ATCC. Cells were plated at a density (ranging from of 5 × 10^3 to 2 × 10^4 cells/well (100 μL vol)) resulting in sub-confluent monolayers to allow expansion during the 2 day growth assay. THP-1 cells were treated with 10 ng/ml phorbol 12-myristate 13-acetate (PMA) for 24 h to differentiate into macrophages before compound addition. For all other cells, compounds were added at 6 h post seeding to host cells containing plates (200 μL final volume, 0.2% DMSO) and incubated in culture medium at 37 °C supplemented with 5% CO2. At 44 h post compound addition (50 h total growth time), culture media was aspirated and replaced with Live Imaging solution (ThermoFisher) supplemented with 10 μg/mL Hoeschst 33342 (Sigma) for 20 min at 37 °C. […] Alternatively, plates fixed with 4% formaldehyde for 10 min and stained with 10 μg/mL Hoeschst 33342 (Sigma) for 20 min and imaged using a Cytation 3 multi-mode imager (DAPI, 10x objective, 4 images/well) and nuclei quantified using the Gen5 imager software (v3.08). Assays were repeated with two technical replicates within each of two independent biological replicates.
All statistical analyses were conducted using Prism 9 (GraphPad Software, Inc.). Dose–response inhibition curves for parasite and host cell toxicity screens (EC50 values) were generated using (Log(inhibitor) vs. normalized response—Variable slope) function. […] For multiple comparisons, two-way ANOVA analysis function using either Sidák’s multiple comparisons test or Dunnett’s multiple comparisons test was applied as indicated.

SMILES | EC50 ([1]; 72 h, read-out: EC50, V262A) | EC50 ([1]; read-out: EC50 (growth restriction)) | oral bioavailability [2] | % Parasite Growth ([3]; 3.33333333 uM, replicate wells) | % Parasite Growth ([3]; 0.00152416 uM) | % Parasite Growth ([3]; 0.00457247 uM) | % Parasite Growth ([3]; 0.01371742 uM) | EC50 ([3]; 72 h, read-out: EC50, RHΔΔ) | EC50 ([3]; read-out: EC50, RHΔΔ) | EC50 ([3]; Table S4, Wild type, read-out: EC50 (growth restriction)) | HFF fold selectivity [4]
COc1ccc(NC(=O)N2CCCCN3[C@H](CN(C)C)[C@H](c4ccc(C#Cc5ccccc5)cc4)[C@@H]3C2)cc1 [BRD7929] | 0.202 µM | 0.159 µM | 80% | -62.34% and -8.91% and -41.4% and -6.78% and -65.46% and -56.23% and -31.38% and -99.25% and -132.9% and -155.42% and -68.19% and -11.78% | 68.94% and 89.11% and 79.46% and 70.31% and 60.77% | 84.64% and 87.57% and 82.22% and 46.33% and 48.4% | 76.37% and 86.87% and 80.22% and 58.24% and 60.43% | 0.082 µM | 0.053 µM | 0.036 µM | 
COc1ccc(NC(=O)N2CCCCN3[C@H](CN(C)S(C)(=O)=O)[C@H](c4ccc(C#Cc5ccccc5)cc4)[C@@H]3C2)cc1 [BRD8494] |  |  |  |  |  |  |  |  |  |  | 571.4 fold
